Data: publication doi:10.1101/112086v2 (biorxiv, 2017)
Numbering of substitutions follows the chain as printed.

Tests used:
[1] = target: T1, Mps1 kinase domain (Homo sapiens, UniProt P33981, C604Y); assay: microscale thermophoresis, DY-547P1 labelled protein; type: binding
T1 sequence (P33981 519-808 C604Y): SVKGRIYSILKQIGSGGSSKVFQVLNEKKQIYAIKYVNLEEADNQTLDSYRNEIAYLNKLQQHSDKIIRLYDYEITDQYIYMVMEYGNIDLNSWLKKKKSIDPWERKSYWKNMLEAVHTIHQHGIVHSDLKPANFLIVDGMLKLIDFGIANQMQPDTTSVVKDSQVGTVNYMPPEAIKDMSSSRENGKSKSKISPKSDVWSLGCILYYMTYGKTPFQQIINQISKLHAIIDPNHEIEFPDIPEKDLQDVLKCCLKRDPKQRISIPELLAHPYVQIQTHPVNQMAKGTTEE

[2] = target: T2, Mps1 kinase domain (Homo sapiens, UniProt P33981, C604W); assay: as above; type: binding
T2 sequence (P33981 519-808 C604W): T1 sequence (P33981 519-808 C604Y) with Y86W

[3] = target: T3, GST-Mps1 full length (Homo sapiens, UniProt P33981); assay: biochemical
T3 sequence (P33981 1-857): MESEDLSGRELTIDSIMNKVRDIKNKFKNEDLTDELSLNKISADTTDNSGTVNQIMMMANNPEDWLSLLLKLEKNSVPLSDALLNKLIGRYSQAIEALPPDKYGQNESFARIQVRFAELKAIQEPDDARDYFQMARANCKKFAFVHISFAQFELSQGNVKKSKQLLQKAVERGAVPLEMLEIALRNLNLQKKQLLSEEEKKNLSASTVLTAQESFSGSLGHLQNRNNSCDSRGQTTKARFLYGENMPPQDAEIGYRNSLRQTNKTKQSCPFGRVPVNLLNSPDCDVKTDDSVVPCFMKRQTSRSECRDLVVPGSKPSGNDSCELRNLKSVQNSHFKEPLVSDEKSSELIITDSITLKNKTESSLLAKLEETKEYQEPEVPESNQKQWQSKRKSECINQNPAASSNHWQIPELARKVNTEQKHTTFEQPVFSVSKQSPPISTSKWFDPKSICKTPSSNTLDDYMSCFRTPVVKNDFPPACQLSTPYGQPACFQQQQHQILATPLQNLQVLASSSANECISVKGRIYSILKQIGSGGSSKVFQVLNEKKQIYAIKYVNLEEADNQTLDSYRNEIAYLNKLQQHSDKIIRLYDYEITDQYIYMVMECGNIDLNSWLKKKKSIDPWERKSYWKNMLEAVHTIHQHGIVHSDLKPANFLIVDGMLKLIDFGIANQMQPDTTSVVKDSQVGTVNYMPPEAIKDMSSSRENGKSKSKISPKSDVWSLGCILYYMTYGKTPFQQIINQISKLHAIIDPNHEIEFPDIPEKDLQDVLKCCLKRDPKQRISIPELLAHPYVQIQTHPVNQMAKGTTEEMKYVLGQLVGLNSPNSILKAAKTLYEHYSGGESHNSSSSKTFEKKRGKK

[4] = target: T4, GST-Mps1 full length (Homo sapiens, UniProt P33981, C604Y); assay: biochemical
T4 sequence (P33981 1-857 C604Y): T3 sequence (P33981 1-857) with C604Y

[5] = target: T5, Mps1 kinase domain (Homo sapiens, UniProt P33981); assay: microscale thermophoresis, DY-547P1 labelled protein; type: binding
T5 sequence (P33981 519-808): T1 sequence (P33981 519-808 C604Y) with Y86C

[6] = target: T6, GST-Mps1 full length (Homo sapiens, UniProt P33981, C604W); assay: biochemical
T6 sequence (P33981 1-857 C604W): T3 sequence (P33981 1-857) with C604W

Kd [1]: 471 ± 50 nM
Kd [2]: 349 ± 81 nM
IC50 [3]: 9.2 ± 1.6 nM
IC50 [4]: 170 ± 30 nM
Kd [5]: 1.6 ± 0.2 nM
IC50 [6]: 19 ± 1 nM
Compound: CCc1cccc(CC)c1NC(=O)c1nn(C)c2c1CCc1cnc(Nc3ccc(N4CCN(C)CC4)cc3OC)nc1-2 [Cpd-5, N-(2,6-diethylphenyl)-8-((2-methoxy-4-(4-methylpiperazin-1-yl)phenyl)amino)-1-methyl-4,5-dihydro-1H-pyrazolo[4,3-h]quinazoline-3-carboxamide]
